In the supplement of paper PMC10307832:

Assays:
Assay in all cases: relative viability (nuclei count vs DMSO), 5 days (fraction); higher = more cells survive
Etoposide + Trametinib = compound: COc1cc([C@@H]2c3cc4c(cc3[C@@H](O[C@@H]3O[C@@H]5CO[C@@H](C)O[C@H]5[C@H](O)[C@H]3O)[C@H]3COC(=O)[C@H]23)OCO4)cc(OC)c1O [Etoposide] + CC(=O)Nc1cccc(-n2c(=O)n(C3CC3)c(=O)c3c(Nc4ccc(I)cc4F)n(C)c(=O)c(C)c32)c1 [Trametinib] (partner 0.02 µM)
In short: (§1)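 Lung cancer cell lines were pin-tool dosed in 1536-well plates on the day after seeding, with either a lone drug or a fixed anchor-drug dose plus five library-drug doses (not always all listed) in √10 steps. Nuclei were counted on 4× images after 5 days. Relative viability is the ratio of treated-well to vehicle-well nuclei counts, with each value a median of duplicate plates.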

Etoposide + Decitabine = compound: COc1cc([C@@H]2c3cc4c(cc3[C@@H](O[C@@H]3O[C@@H]5CO[C@@H](C)O[C@H]5[C@H](O)[C@H]3O)[C@H]3COC(=O)[C@H]23)OCO4)cc(OC)c1O [Etoposide] + Nc1ncn([C@H]2C[C@H](O)[C@@H](CO)O2)c(=O)n1 [Decitabine] (partner 2 µM)
In short: as §1

Bleomycin + Luminespib = compound: CC1=C(N=C(N=C1N)[C@H](CC(=O)N)NC[C@@H](C(=O)N)N)C(=O)N[C@@H]([C@H](C2=CN=CN2)OC3C(C(C(C(O3)CO)O)O)OC4C(C(C(C(O4)CO)O)OC(=O)N)O)C(=O)N[C@H](C)[C@H]([C@H](C)C(=O)N[C@@H]([C@@H](C)O)C(=O)NCCC5=NC(=CS5)C6=NC(=CS6)C(=O)NCCC[S+](C)C)O [Bleomycin] + CCNC(=O)c1noc(-c2cc(C(C)C)c(O)cc2O)c1-c1ccc(CN2CCOCC2)cc1 [Luminespib] (partner 0.01 µM); details: main component drawn
In short: as §1

Etoposide + Linsitinib = compound: COc1cc([C@@H]2c3cc4c(cc3[C@@H](O[C@@H]3O[C@@H]5CO[C@@H](C)O[C@H]5[C@H](O)[C@H]3O)[C@H]3COC(=O)[C@H]23)OCO4)cc(OC)c1O [Etoposide] + C[C@]1(O)C[C@@H](c2nc(-c3ccc4ccc(-c5ccccc5)nc4c3)c3c(N)nccn32)C1 [Linsitinib] (partner 1 µM)
In short: as §1

Cell Line | relative viability (Etoposide + Trametinib; first compound 0.03162 µM) | relative viability (Etoposide + Trametinib; first compound 0.1 µM) | relative viability (Etoposide + Trametinib; first compound 0.3162 µM) | relative viability (Etoposide + Trametinib; first compound 1 µM) | relative viability (Etoposide + Decitabine; first compound 0.03162 µM) | relative viability (Etoposide + Decitabine; first compound 0.1 µM) | relative viability (Etoposide + Decitabine; first compound 0.3162 µM) | relative viability (Etoposide + Decitabine; first compound 1 µM) | relative viability (Bleomycin + Luminespib; first compound 0.01 µM) | relative viability (Bleomycin + Luminespib; first compound 0.03162 µM) | relative viability (Bleomycin + Luminespib; first compound 0.1 µM) | relative viability (Bleomycin + Luminespib; first compound 0.3162 µM) | relative viability (Bleomycin + Luminespib; first compound 1 µM) | relative viability (Etoposide + Linsitinib; first compound 0.01 µM) | relative viability (Etoposide + Linsitinib; first compound 0.03162 µM) | relative viability (Etoposide + Linsitinib; first compound 0.1 µM) | relative viability (Etoposide + Linsitinib; first compound 0.3162 µM) | relative viability (Etoposide + Linsitinib; first compound 1 µM) | relative viability (Etoposide + Trametinib; first compound 0.01 µM) | relative viability (Etoposide + Decitabine; first compound 0.01 µM)
NCI-H1993 | 0.619 | 0.441 | 0.481 | 0.444 | 0.609 | 0.482 | 0.599 | 0.461 | 0.738 | 0.497 | 0.716 | 0.57 | 0.41 | 0.81 | 0.692 | 0.7 | 0.662 | 0.537 |  | 
NCI-H2009 | 0.286 | 0.168 | 0.246 | 0.216 | 0.425 | 0.316 | 0.354 | 0.234 | 0.962 | 1.04 | 0.961 | 0.704 | 0.618 | 1.09 | 1.24 | 1.25 | 0.839 | 0.401 | 0.239 | 0.396
NCI-H2023 | 0.647 | 0.559 | 0.452 | 0.186 | 0.247 | 0.204 | 0.146 | 0.109 | 0.526 | 0.531 | 0.454 | 0.128 | 0.0778 | 0.617 | 0.646 | 0.651 | 0.444 | 0.171 | 0.448 | 0.246
NCI-H2085 | 0.643 | 0.423 | 0.266 | 0.271 | 0.573 | 0.484 | 0.373 | 0.374 | 0.408 | 0.436 | 0.369 | 0.314 | 0.279 | 0.8 | 0.883 | 0.859 | 0.51 | 0.279 | 0.484 | 0.609
NCI-H2087 | 0.213 | 0.173 | 0.2 | 0.147 | 0.3 | 0.276 | 0.214 | 0.102 |  | 0.162 | 0.188 | 0.124 | 0.142 |  | 1.06 | 0.889 | 0.588 | 0.303 | 0.206 | 0.287
NCI-H2126 | 0.683 | 0.427 | 0.455 | 0.312 | 0.636 | 0.486 | 0.476 | 0.323 | 0.954 | 0.934 | 0.872 | 0.566 | 0.551 | 0.738 | 0.719 | 0.457 | 0.598 | 0.437 | 0.539 | 0.584
NCI-H2347 | 0.301 | 0.25 | 0.269 | 0.278 | 0.628 | 0.573 | 0.443 | 0.411 | 0.275 | 0.381 | 0.431 | 0.235 | 0.385 | 1.23 | 1.08 | 0.592 | 0.523 | 0.408 | 0.25 | 0.6
NCI-H2405 | 0.728 | 0.505 | 0.544 | 0.4 | 0.808 | 0.563 | 0.519 | 0.328 | 0.651 | 0.697 | 0.589 | 0.347 | 0.358 | 0.791 | 0.96 | 0.582 | 0.7 | 0.377 | 0.64 | 0.732
